# Results reported in patent US20230338529A1, “COMPOSITIONS FOR ALTERING A MICROGLIAL CELL, AND METHODS OF USE THEREFORE” (The Children's Medical Center Corporation, priority 2020, published 2023).
# Columns and labels:
# microglia = assay: Microglia depletion in vivo with PLX3397, P2Y12-stained spinal cord; set-up: species or system mice; settings: 7 days after PLX3397 treatment; P2Y12 staining
# Description: Mice were given a lethal dose of anesthesia and transcardially perfused with PBS followed by 4% paraformaldehyde (PFA). PFA fixed tissues were incubated in 30% sucrose in PBS for 3 days at 4° C., embedded in OCT (Tissue-Tek), frozen in a dry ice/ethanol bath, and stored at -80° C. Transverse and sagittal sections were cut on a cryostat at 30 µm thick and stored at -20° C. until processed. Before staining, sections were warmed to room temperature and dried on a 37° C. slide warmer for 2 h. Sections then were treated with a blocking solution containing 10% normal donkey serum and 0.5% Triton-100 for 2 hours at room temperature. The primary antibodies used were: rabbit/goat anti-5-HT [Immunostar (20080/20079), 1: 5,000]; rabbit anti-GFAP [DAKO (Z0334), 1:600]; rat anti-GFAP [Thermo Fisher (13-0300), 1:600]; rabbit anti-P2Y12 [AnaSpec (AS-55043A), 1:200]; rat anti-CD68 [Bio-Rad (MCA1957), 1:600]; rabbit anti-Fibronectin [Millipore (AB2033), 1:200]; rabbit anti- Collagen I [Abcam (ab21286), 1:200]; chicken anti-GFP [Abcam (ab13970), 1:400]; goat anti-SPP1 [R&D (AF808), 1:400]; mouse anti-Ly6G/Ly6C [R&D (MAB1037), 1:200]; mouse anti-CSPG [Sigma-Aldrich (C8035), 1:200]; rabbit anti-CSPG [Sigma-Aldrich (L9393), 1:500]; rabbit anti-RFP [Abcam (ab34771), 1:400]. […]
# [1] = system: neonatal spinal cord lesion after P2 crush; assay: P2 spinal cord crush with microglia depletion: bridge formation, wound healing and axon regrowth by immunostaining; type: in vivo, mice
# Description: Newborn pups (P2/P7) were anesthetized by isoflurane. A laminectomy was performed at T10 until the spinal cord was exposed completely from side-to-side. The spinal cord was then fully crushed for 2 seconds with forceps with a width of 0.1 mm in the last 5 mm of tips. The muscles and skin were sutured in layers with 6-0 sutures. EMLA topical cream was used for post-surgery analgesia. Animals then were warmed up and kept in a box containing the bedding from the original cage for at least 30 minutes. After that, the closed surgical site was rubbed with the feces from the mom using a Q-tip and then returned to the mom. Feeding was closely monitored in the first week after surgery. Nutra-Gel diets (Bio-Serv) or breeder chow diets were provided to avoid cannibalism. […] In case of bladder dysfunction, bladder emptying was performed once a day until bladder function was restored.
# Mice were given a lethal dose of anesthesia and transcardially perfused with PBS followed by 4% paraformaldehyde (PFA). PFA fixed tissues were incubated in 30% sucrose in PBS for 3 days at 4° C., embedded in OCT (Tissue-Tek), frozen in a dry ice/ethanol bath, and stored at -80° C. Transverse and sagittal sections were cut on a cryostat at 30 µm thick and stored at -20° C. until processed. Before staining, sections were warmed to room temperature and dried on a 37° C. slide warmer for 2 h. Sections then were treated with a blocking solution containing 10% normal donkey serum and 0.5% Triton-100 for 2 hours at room temperature. The primary antibodies used were: rabbit/goat anti-5-HT [Immunostar (20080/20079), 1: 5,000]; rabbit anti-GFAP [DAKO (Z0334), 1:600]; rat anti-GFAP [Thermo Fisher (13-0300), 1:600]; rabbit anti-P2Y12 [AnaSpec (AS-55043A), 1:200]; rat anti-CD68 [Bio-Rad (MCA1957), 1:600]; rabbit anti-Fibronectin [Millipore (AB2033), 1:200]; rabbit anti- Collagen I [Abcam (ab21286), 1:200]; chicken anti-GFP [Abcam (ab13970), 1:400]; goat anti-SPP1 [R&D (AF808), 1:400]; mouse anti-Ly6G/Ly6C [R&D (MAB1037), 1:200]; mouse anti-CSPG [Sigma-Aldrich (C8035), 1:200]; rabbit anti-CSPG [Sigma-Aldrich (L9393), 1:500]; rabbit anti-RFP [Abcam (ab34771), 1:400]. Secondary antibodies included: Alexa Fluor 488-conjugated donkey anti chicken/rabbit; Alexa Fluor 555-conjugated donkey anti goat/rabbit/mouse and Dylight 650-conjugated donkey anti rat (all from Invitrogen). Spinal cord transverse and sagittal sections were imaged with a confocal laser-scanning microscope (Zeiss 700 or Zeiss 710). Figures showing large longitudinal spinal cord section were acquired using Zeiss 710 with image stitching and/or stack software.
# The lesion site was defined and traced using Collagen I, Fibronectin, GFAP, P2Y12, CD68, CD31, CSPG, Laminin or Ly6G/Ly6C staining. Mice were perfused separately at 3, 7 or 14 days after spinal cord crush as described above to visualize lesion site. Cell nuclei were stained by incubation with DAPI for 30 seconds. Immunostaining intensity in the lesion site (100 µm width region in the epicenter) was measured using ImageJ software and normalized to the intact (proximal) region of the spinal cord.
# To quantify the regenerating/late-arriving 5-HT/CST axons after spinal cord crush, sagittal sections through the lesion were stained with antibodies against 5-HT or RFP. Images of 5-6 sections for each animal were taken under a 10X objective and used for quantification. A series of rectangular segments 100 µm wide and 400 µm high covering the dorsal-ventral aspect of the cord were superimposed onto the sagittal sections, starting from lesion center up to a defined distance caudal. After subtracting the background, the pixel value of each segment was normalized by dividing with the rostral segment (1 mm rostral). The results were presented as a ratio at different distances (axons density index).
# To deplete microglia in vivo, adult mice were given the CSF1R inhibitor PLX3397 mixed into AIN-76A standard chow (Research Diets). […]
compound,measurement,setting,value
FC(F)(F)c1ccc(CNc2ccc(Cc3c[nH]c4ncc(Cl)cc34)cn2)cn1 [PLX3397],microglia depletion in neonatal spinal cord,microglia,most microglia were depleted
same,"bridge formation (fibronectin, CD68 staining)","[1]; P2 crush, 3 dpi",defects of bridge formation
same,"wound healing and axon regeneration after neonatal crush (5-HT, GFAP staining)","[1]; P2 crush, 7 dpi",impairs wound healing and axon regeneration
same,GFAP+ reactive astrocytes in the lesion,"[1]; P2 crush, 14 dpi",strong GFAP+ reactive astrocytes accumulating in the epicenter
same,"accumulation of basal lamina components (CSPG, laminin)","[1]; P2 crush, 14 dpi",limited accumulations
same,axon growth at the lesion (5-HT),"[1]; P2 crush, 14 dpi",majority of axons stalled at the lesion epicenter
same,blood vessels in the lesion (CD31),"[1]; P2 crush, 14 dpi",blood vessels were absent
same,bridge formation between the two severed stumps,"[1]; P2 injury model, 3 or 7 dpi",impaired bridge formation
